Measured values from article PMC9612054, “Experimental and Computational Analysis of Newly Synthesized Benzotriazinone Sulfonamides as Alpha-Glucosidase Inhibitors” (Molecules, 2022).

Columns and labels:
[1] = biological target: T1, alpha-Glucosidase (Cat No. 5003-1KU Type I) (Saccharomyces cerevisiae, UniProt P53341); assay: biochemical; details: for inhibition at 500 µM: pH 6.8, read-out: % Inhibition at 0.5 mM
T1 construct: purchased 5003-1KU Type I
Method: It actively works in the intestinal tract by inhibiting alpha-glucosidase, which is responsible for the conversion of complex carbohydrates to absorbable glucose. […] Therefore, an alpha-glucosidase inhibition assay of newly synthesized amino benzotriazinones 11a–11b and their corresponding sulfonamides 12a–12f was carried out by spectrophotometric method.
Alpha-glucosidase inhibition activity was carried out by the Pierre et al. method with slight modifications, and alpha-Glucosidase (Cat No. 5003-1KU Type I) from Saccharomyces cereviciae was utilized for the experimental protocol due to its resemblances to the structure and function of yeast/mammalian enzyme. For test, saline phosphate buffer (70 μL, 50 mM with pH 6.8), alpha-glucosidase enzyme (10 μL, 0.0234 units) and test compound (10 μL, 0.5 mM) were taken in test tubes and incubated for 10 min at 37 °C. Absorbance of these prepared samples was recorded at 400 nm. 10 μL p-nitrophenyl-alpha-D-glucopyranoside (0.5 mM, ‘substrate’, code No. N1377 from Sigma) was used to initiate the reaction and test tubes were allowed to stand for 30 min. Then, the variation in concentration of free substrate was noted by the change in absorbance. The enzyme percentage inhibition was estimated by the following formula and IC50 values were calculated by ‘EZ-Fit enzyme kinetics software. % Inhibition = [([…])/Abs. of control] × 100

[2] = Solubility (physiochemical properties); format: physicochemical; details: solvents in which the compound is soluble
alpha-glucosidase = biological target: alpha-glucosidase; set-up: method as in doi:10.1007/s00044-022-02883-1; details: earlier series; cited from earlier work

T1 sequence (P53341 whole entry): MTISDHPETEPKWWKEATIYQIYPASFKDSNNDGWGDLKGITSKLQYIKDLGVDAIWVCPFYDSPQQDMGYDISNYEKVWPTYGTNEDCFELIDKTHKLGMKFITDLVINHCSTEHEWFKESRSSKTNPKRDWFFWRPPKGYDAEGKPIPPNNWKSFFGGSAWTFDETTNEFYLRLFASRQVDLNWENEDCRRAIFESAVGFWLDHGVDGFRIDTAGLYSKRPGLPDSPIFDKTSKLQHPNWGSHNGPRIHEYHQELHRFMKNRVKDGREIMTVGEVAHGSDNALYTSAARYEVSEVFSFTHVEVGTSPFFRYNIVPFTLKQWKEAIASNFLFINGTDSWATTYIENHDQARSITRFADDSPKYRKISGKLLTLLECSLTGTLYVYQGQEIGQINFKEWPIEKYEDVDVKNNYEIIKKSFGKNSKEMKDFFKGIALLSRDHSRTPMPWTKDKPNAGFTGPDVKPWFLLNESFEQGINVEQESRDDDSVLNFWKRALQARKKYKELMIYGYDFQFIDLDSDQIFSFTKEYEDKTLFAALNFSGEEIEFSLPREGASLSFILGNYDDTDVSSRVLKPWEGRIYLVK

Molecule	IC50 [1] [µM]	inhibition at 500 µM [1] [%]	Solubility [2]	melting point [°C]	% Inhibition at 0.5 mM ([1]; test compound 0.5 mM, pH 6.8, 37 °C) [%]	IC50 (alpha-glucosidase) [µM]
CCCn1nnc2ccc(NS(=O)(=O)c3ccc([N+](=O)[O-])cc3)cc2c1=O [Compound 12e, 4-Nitro-N-(4-oxo-3-propyl-3,4-dihydrobenzo[1,2,3]triazin-6-yl)benzenesulfonamide]	32.37 ± 0.15	96.27 ± 0.19	Ethanol, DMSO	167 to 169	–	–
C[C@H]1O[C@H](O[C@H]2[C@H](O)[C@@H](O)[C@@H](O[C@H]3[C@H](O)[C@@H](O)C(O)O[C@@H]3CO)O[C@@H]2CO)[C@H](O)[C@@H](O)[C@@H]1N[C@H]1C=C(CO)[C@@H](O)[C@H](O)[C@H]1O (stereo partly shown) [acarbose, reference compound]	–	–	–	–	92.23 ± 0.16	–
CCCn1nnc2ccc(NS(=O)(=O)c3ccc(OC)cc3)cc2c1=O [Compound 12b, 4-Methoxy-N-(4-oxo-3-propyl-3,4-dihydrobenzo[1,2,3]triazin-6-yl)benzenesulfonmide]	39.21 ± 0.12	91.73 ± 0.17	Ethanol, DMSO	175 to 177	–	–
CCCCn1nnc2ccc(NS(=O)(=O)c3ccc([N+](=O)[O-])cc3)cc2c1=O [Compound 12f, 4-Nitro-N-(4-oxo-3-butyl-3,4-dihydrobenzo[1,2,3]triazin-6 yl)benzenesulfonamide]	37.75 ± 0.11	93.27 ± 0.14	Ethanol, DMSO	179 to 181	–	–
CCCn1nnc2ccc(NS(=O)(=O)c3ccc(Br)cc3)cc2c1=O [Compound 12d, 4-Bromo-N-(4-oxo-3-propyl-3,4-dihydrobenzo[1,2,3]triazin-6-yl)benzenesulfonamide]	55.21 ± 0.12	79.42 ± 0.15	Ethanol, DMSO	–	–	–
CCCNC(=O)c1cc([N+](=O)[O-])ccc1N [Compound 9a, 2-Amino-5-nitro-N-propylbenzamide]	–	–	Ethanol, DMSO	195 to 197	–	–
6-Nitroisatoic Anhydride [Compound 8]	–	–	Ethanol, DMSO	–	–	–
CCCn1nnc2ccc(NS(=O)(=O)c3ccc(Cl)cc3)cc2c1=O [Compound 12c, 4-Chloro-N-(4-oxo-3-propyl-3,4-dihydrobenzo[1,2,3]triazin-6-yl)benzenesulfonamide]	53.76 ± 0.14	78.12 ± 0.16	Ethanol, DMSO	169 to 171	–	–
Isatoic Anhydride [Compound 7]	–	–	Ethanol, DMSO	–	–	–
CCCCn1nnc2ccc([N+](=O)[O-])cc2c1=O [Compound 10b, 6-Nitro-3-butylbenzo[1,2,3]triazin-4(3H)-one]	–	–	Ethanol, DMSO	217 to 218	–	–
CCCn1nnc2ccc(NS(=O)(=O)c3ccccc3)cc2c1=O [Compound 12a, N-(4-Oxo-3-propyl-3,4-dihydrobenzo[1,2,3]triazin-6-yl)benzenesulfonamide]	–	51.25 ± 0.16	Ethanol, DMSO	171 to 173	–	–
CCCCn1nnc2ccc(N)cc2c1=O [Compound 11b, 6-Amino-3-butylbenzo[1,2,3]triazin-4(3H)-one]	–	27.12 ± 0.13	Methanol, DMSO	191 to 192	–	–
Cc1ccc(NS(=O)(=O)c2ccc(-n3nnc4ccccc4c3=O)cc2)cc1C [Compound 4]	–	–	–	–	–	29.75 ± 0.14
CCCCNC(=O)c1cc([N+](=O)[O-])ccc1N [Compound 9b, 2-Amino-5-nitro-N-butylbenzamide]	–	–	Ethanol, DMSO	197 to 199	–	–
CCCn1nnc2ccc(N)cc2c1=O [Compound 11a, 6-Amino-3-propylbenzo[1,2,3]triazin-4(3H)-one]	–	26.12 ± 0.13	Methanol, DMSO	185 to 186	–	–
CCCn1nnc2ccc([N+](=O)[O-])cc2c1=O [Compound 10a, 6-Nitro-3-propylbenzo[1,2,3]triazin-4(3H)-one]	–	–	Ethanol, DMSO	215 to 217	–	–
